In ChEMBL document CHEMBL4346760, “Alkynamide phthalazinones as a new class of TbrPDEB1 inhibitors (Part 2)” (Bioorg Med Chem, 2019):
pIC50, pKd, pKi: −log10 of the molar value. The source made the active and inactive calls. The calls are words filed in the database; no cut-off is given here.

Assays:
[1] = molecular target: 3',5'-cyclic-AMP phosphodiesterase 4B (Homo sapiens, UniProt Q07343); assay: Inhibition of human PDE4B catalytic domain using cAMP as substrate incubated for 20 mins by PDELight HTS cAMP phosphodiesterase Kit based luminometry
3',5'-cyclic-AMP phosphodiesterase 4B, sequence (Q07343 whole entry, the tested form may be a part): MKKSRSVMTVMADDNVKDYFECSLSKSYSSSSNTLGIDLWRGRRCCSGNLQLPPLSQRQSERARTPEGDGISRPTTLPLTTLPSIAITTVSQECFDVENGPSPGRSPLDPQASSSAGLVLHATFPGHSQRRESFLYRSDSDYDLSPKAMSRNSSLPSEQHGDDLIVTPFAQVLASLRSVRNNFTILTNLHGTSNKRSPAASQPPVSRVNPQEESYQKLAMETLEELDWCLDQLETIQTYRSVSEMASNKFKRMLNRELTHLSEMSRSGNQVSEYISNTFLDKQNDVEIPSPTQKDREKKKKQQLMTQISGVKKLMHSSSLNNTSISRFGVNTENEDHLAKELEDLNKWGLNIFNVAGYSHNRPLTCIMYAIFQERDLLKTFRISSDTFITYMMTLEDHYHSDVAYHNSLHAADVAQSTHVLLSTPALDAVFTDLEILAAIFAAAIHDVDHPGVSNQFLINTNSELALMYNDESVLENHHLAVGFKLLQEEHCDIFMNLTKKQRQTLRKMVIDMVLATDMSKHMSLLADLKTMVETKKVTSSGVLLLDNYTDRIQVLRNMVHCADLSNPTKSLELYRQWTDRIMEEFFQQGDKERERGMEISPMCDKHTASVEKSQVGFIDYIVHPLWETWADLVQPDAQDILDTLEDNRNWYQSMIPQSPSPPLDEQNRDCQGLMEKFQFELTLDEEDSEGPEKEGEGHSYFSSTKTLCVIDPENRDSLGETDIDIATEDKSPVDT

[2] = molecular target: T1, Class 1 phosphodiesterase PDEB1 (Trypanosoma brucei, UniProt Q8WQX9); assay: Inhibition of Trypanosoma brucei PDEB1 catalytic domain using cAMP as substrate incubated for 20 mins by PDELight HTS cAMP phosphodiesterase Kit based luminometry
T1 sequence (Q8WQX9 whole entry): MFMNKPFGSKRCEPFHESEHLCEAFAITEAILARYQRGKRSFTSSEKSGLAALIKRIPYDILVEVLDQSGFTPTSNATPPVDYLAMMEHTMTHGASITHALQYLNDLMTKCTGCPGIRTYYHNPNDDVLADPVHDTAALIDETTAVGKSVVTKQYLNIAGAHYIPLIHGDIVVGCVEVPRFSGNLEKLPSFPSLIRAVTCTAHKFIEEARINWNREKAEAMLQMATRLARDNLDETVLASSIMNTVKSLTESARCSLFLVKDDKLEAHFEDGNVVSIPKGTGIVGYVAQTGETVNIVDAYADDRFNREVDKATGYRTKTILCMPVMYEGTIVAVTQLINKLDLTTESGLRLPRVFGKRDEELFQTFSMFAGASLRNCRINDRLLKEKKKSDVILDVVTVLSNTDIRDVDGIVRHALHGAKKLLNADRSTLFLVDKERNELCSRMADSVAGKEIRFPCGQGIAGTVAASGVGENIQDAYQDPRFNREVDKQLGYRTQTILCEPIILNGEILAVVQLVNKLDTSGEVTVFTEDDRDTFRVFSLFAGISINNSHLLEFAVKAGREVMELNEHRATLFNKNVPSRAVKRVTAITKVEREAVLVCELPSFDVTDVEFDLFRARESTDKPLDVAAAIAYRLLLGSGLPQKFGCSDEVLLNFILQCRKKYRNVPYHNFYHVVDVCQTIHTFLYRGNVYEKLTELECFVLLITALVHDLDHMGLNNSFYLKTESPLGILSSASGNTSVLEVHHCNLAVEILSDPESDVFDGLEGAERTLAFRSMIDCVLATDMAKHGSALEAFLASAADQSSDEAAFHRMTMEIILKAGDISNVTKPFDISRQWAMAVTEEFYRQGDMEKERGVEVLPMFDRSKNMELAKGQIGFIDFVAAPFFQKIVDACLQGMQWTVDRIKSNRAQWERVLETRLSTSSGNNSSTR

[3] = Cytotoxicity against human MRC5 cells assessed as reduction in cell viability incubated for 72 hrs by resazurin dye-based fluorimetric analysis
Trypanosoma brucei [4] = assay: Antitrypanosomal activity against Trypanosoma brucei Squib 427 trypomastigotes assessed as reduction in parasite growth incubated for 72 hrs by resazurin dye-based fluorimetric analysis; assay type: functional, organism-based; conditions: Squib 427, 72 h
[5] = Selectivity index, ratio of pKi for Trypanosoma brucei PDEB1 to pKi for human PDE4B using cAMP as substrate incubated for 20 mins by PDELight HTS cAMP phosphodiesterase Kit based luminometry
[6] = molecular target: T2, 3',5'-cyclic-AMP phosphodiesterase 4D (Homo sapiens, UniProt Q08499); assay: Binding affinity to human PDE4D assessed as dissociation constant treated for 320 secs measured for 900 secs by SPR assay
T2 sequence (Q08499 whole entry): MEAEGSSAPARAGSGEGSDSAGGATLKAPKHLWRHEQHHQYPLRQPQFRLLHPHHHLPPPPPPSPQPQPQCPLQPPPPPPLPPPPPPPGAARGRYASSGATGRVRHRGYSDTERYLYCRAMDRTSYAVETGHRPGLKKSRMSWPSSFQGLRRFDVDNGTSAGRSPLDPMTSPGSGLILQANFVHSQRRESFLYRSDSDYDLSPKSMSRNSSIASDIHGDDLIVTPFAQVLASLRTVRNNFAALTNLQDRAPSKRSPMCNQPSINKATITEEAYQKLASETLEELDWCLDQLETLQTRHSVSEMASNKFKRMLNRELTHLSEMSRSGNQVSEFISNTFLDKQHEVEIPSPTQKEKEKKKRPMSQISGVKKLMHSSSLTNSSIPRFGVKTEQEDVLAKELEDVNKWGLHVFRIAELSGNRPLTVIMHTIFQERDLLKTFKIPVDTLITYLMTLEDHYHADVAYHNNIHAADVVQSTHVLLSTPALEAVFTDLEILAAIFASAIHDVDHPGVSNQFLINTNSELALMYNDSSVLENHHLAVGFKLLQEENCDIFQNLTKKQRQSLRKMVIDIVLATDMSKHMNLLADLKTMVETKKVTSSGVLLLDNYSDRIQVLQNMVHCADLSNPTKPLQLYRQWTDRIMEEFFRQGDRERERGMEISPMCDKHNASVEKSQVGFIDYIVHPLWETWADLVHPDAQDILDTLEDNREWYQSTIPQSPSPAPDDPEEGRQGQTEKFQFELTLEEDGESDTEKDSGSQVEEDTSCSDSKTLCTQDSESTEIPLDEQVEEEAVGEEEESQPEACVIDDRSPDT

[7] = molecular target: T1, Class 1 phosphodiesterase PDEB1; assay: Binding affinity to Trypanosoma brucei PDEB1 assessed as dissociation constant treated for 320 secs measured for 900 secs by SPR assay
Trypanosoma brucei [8] = assay: Antitrypanosomal activity against bloodstream form of Trypanosoma brucei 221 cells assessed as blockade in cytokinesis with multiple flagella and nuclei formation at 1 uM incubated for 24 to 48 hrs by DAPI/PFR-staining based fluorescence microscopy; assay type: functional, organism-based
Trypanosoma brucei [9] = assay: Antitrypanosomal activity against procyclic form of Trypanosoma brucei 2913 assessed as increase in intracellular cAMP level at 1 to 10 uM by cAMP sensor based FRET assay; assay type: functional, organism-based
[10] = molecular target: T1, Class 1 phosphodiesterase PDEB1; assay: Binding affinity to Trypanosoma brucei PDEB1 assessed as dissociation constant treated for 60 secs measured for 300 secs by SPR assay
[11] = molecular target: T2, 3',5'-cyclic-AMP phosphodiesterase 4D; assay: Binding affinity to human PDE4D assessed as dissociation constant treated for 60 secs measured for 300 secs by SPR assay

Structure (SMILES) | pKi [1] | pKi [2] | CC50 at 72 h [3] [nM] | pIC50 (Trypanosoma brucei [4]) | Ratio pKi [5] | pKd [6] | pKd [7] | Activity (Trypanosoma brucei [8]) | Activity (Trypanosoma brucei [9]) | pKd [10] | pKd [11]
COc1ccc(C2=NN(C(C)C)C(=O)[C@@H]3CC=CC[C@H]23)cc1C#CC(=O)NCc1cnn(C)c1 | 6.20 | 6.90 | 20000 | 5.80 | – | – | – | – | – | – | –
COc1ccc(C2=NN(C3CCCCCC3)C(=O)[C@@H]3CC=CC[C@H]23)cc1C#CC(N)=O | 6.50 | 6.20 | – | – | – | – | – | – | – | – | –
COc1ccc(C2=NN(C3CCCCCC3)C(=O)[C@@H]3CC=CC[C@H]23)cc1-c1ccc(C(=O)NCC(N)=O)cc1 | – | – | – | – | 1 | – | – | – | – | – | –
COc1ccc(C2=NN(C(C)C)C(=O)[C@@H]3CC=CC[C@H]23)cc1C#CC(=O)NCCCn1ccnc1 (relative stereo) | 6.20 | 6.40 | 251 | 5.10 | – | – | – | – | – | – | –
COc1ccc(C2=NN(C(C)C)C(=O)[C@@H]3CC=CC[C@H]23)cc1C#CC(=O)NCc1ccccc1 (relative stereo) | 6.10 | 6.80 | > 63100 | 6.20 | – | 7.10 | 7.10 | Active | Active | – | –
COc1ccc(C2=NN(C(C)C)C(=O)[C@@H]3CC=CC[C@H]23)cc1C#CC(=O)NCc1ccc(C)o1 (relative stereo) | 6.70 | 6.70 | > 63100 | 5.50 | – | – | – | – | – | – | –
COc1ccc(C2=NN(C(C)C)C(=O)[C@@H]3CC=CC[C@H]23)cc1C#CC(=O)NCCc1cccs1 (relative stereo) | 6.10 | 6.40 | > 63100 | 5.60 | – | – | – | – | – | – | –
COc1ccc(C2=NN(C(C)C)C(=O)[C@@H]3CC=CC[C@H]23)cc1C#CC(=O)NCCc1ccccc1F (relative stereo) | 6.10 | 6.50 | > 63100 | 5.70 | – | – | – | – | – | – | –
COc1ccc(C2=NN(C(C)C)C(=O)[C@@H]3CC=CC[C@H]23)cc1C#CC(=O)NCc1ccco1 (relative stereo) | 6.40 | 6.90 | > 63100 | 5.60 | – | – | – | – | – | – | –
COc1ccc(C2=NN(C(C)C)C(=O)[C@@H]3CC=CC[C@H]23)cc1C#CC(=O)NCc1sc(C)nc1C (relative stereo) | 6.60 | 6.70 | 7940 | 5.70 | – | – | – | – | – | – | –
COc1ccc(C2=NN(C(C)C)C(=O)[C@@H]3CC=CC[C@H]23)cc1C#CC(=O)NCc1cccnc1 (relative stereo) | 6.30 | 7.00 | 3980 | 5.90 | – | – | – | – | – | – | –
COc1cccc(NC(=O)C#Cc2cc(C3=NN(C(C)C)C(=O)[C@@H]4CC=CC[C@H]34)ccc2OC)c1 (relative stereo) | 6.00 | 6.70 | > 63100 | 5.80 | – | – | – | – | – | – | –
COc1ccc(C2=NN(C(C)C)C(=O)[C@@H]3CC=CC[C@H]23)cc1C#CC(=O)N1CC(C#N)C1 (relative stereo) | 6.40 | 6.20 | 7940 | 5.10 | – | – | – | – | – | – | –
COc1ccc(C2=NN(C(C)C)C(=O)[C@@H]3CC=CC[C@H]23)cc1C#CC(=O)NCc1ccncc1 (relative stereo) | 6.20 | 7.00 | 31600 | 6.00 | – | – | – | Active | Active | – | –
COc1ccc(C2=NN(C(C)C)C(=O)[C@@H]3CC=CC[C@H]23)cc1C#CC(N)=O (relative stereo) | 6.50 | 6.30 | 31600 | 5.20 | – | – | – | – | – | 6.10 | 6.60
COc1ccc(C2=NN(C(C)C)C(=O)[C@@H]3CC=CC[C@H]23)cc1C#CC(=O)Nc1cnn(C)n1 (relative stereo) | 6.30 | 5.60 | 10000 | < 4.20 | – | – | – | – | – | – | –
COc1ccc(C2=NN(C(C)C)C(=O)[C@@H]3CC=CC[C@H]23)cc1C#CC(=O)N1CCOCC1 (relative stereo) | 6.10 | 6.00 | 31600 | 5.00 | – | – | – | – | – | – | –
COc1ccc(C2=NN(C(C)C)C(=O)[C@@H]3CC=CC[C@H]23)cc1C#CC(=O)NCC1CCC1 (relative stereo) | 6.10 | 6.50 | > 63100 | 5.20 | – | – | – | – | – | – | –
COc1ccc(C2=NN(C(C)C)C(=O)[C@@H]3CC=CC[C@H]23)cc1C#CC(=O)NCCc1nccs1 (relative stereo) | 6.40 | 6.60 | 10000 | 5.30 | – | – | – | – | – | – | –
COc1ccc(C2=NN(C(C)C)C(=O)[C@@H]3CC=CC[C@H]23)cc1C#CC(=O)Nc1ccn(CCCC#N)n1 (relative stereo) | 5.90 | 6.10 | 7940 | 5.70 | – | – | – | – | – | – | –
COc1ccc(C2=NN(C(C)C)C(=O)[C@@H]3CC=CC[C@H]23)cc1C#CC(=O)NCc1cccs1 (relative stereo) | 6.30 | 6.90 | 63100 | 6.00 | – | – | – | – | – | – | –
CCCCNC(=O)C#Cc1cc(C2=NN(C(C)C)C(=O)[C@@H]3CC=CC[C@H]23)ccc1OC (relative stereo) | 6.30 | 6.50 | > 63100 | 5.10 | – | – | – | – | – | – | –
COc1ccc(C2=NN(C(C)C)C(=O)[C@@H]3CC=CC[C@H]23)cc1C#CC(=O)NCCC#N (relative stereo) | 6.10 | 6.00 | 31600 | 4.60 | – | – | – | – | – | – | –
COc1ccc(C2=NN(C(C)C)C(=O)[C@@H]3CC=CC[C@H]23)cc1C#CC(=O)NCC1CC1 (relative stereo) | 6.50 | 6.40 | > 63100 | 5.10 | – | – | – | – | – | – | –
COc1ccc(C2=NN(C(C)C)C(=O)[C@@H]3CC=CC[C@H]23)cc1C#CC(=O)NCc1csc(C)n1 (relative stereo) | 6.00 | 6.50 | 12600 | 5.70 | – | – | – | – | – | – | –
COc1ccc(C2=NN(C(C)C)C(=O)[C@@H]3CC=CC[C@H]23)cc1C#CC(=O)NCC1CCCO1 (relative stereo) | 5.90 | 6.40 | 31600 | 5.10 | – | – | – | – | – | – | –
